Assay results: ChEMBL document CHEMBL2074025 (AIDS, 2002)
Each block holds one compound with its values, some of them ahead of it.

Legend:
Format in all cases: functional, cell-based
[1] = molecular target: T1, Multidrug resistance-associated protein 1 (Homo sapiens, UniProt P33527); assay: TP_TRANSPORTER: inhibition of Calcein efflux (Calcein: 0.05 micro;M, Lamivudine: 0.55 uM) in UMCC-1/VP cells
[2] = molecular target: T1, Multidrug resistance-associated protein 1; assay: TP_TRANSPORTER: inhibition of Calcein efflux (Calcein: 0.05 micro;M, Amprenavir: 0.02 uM) in UMCC-1/VP cells
[3] = molecular target: T1, Multidrug resistance-associated protein 1; assay: TP_TRANSPORTER: inhibition of Calcein efflux (Calcein: 0.05 micro;M, Indinavir: 0.114 uM) in UMCC-1/VP cells
[4] = molecular target: T1, Multidrug resistance-associated protein 1; assay: TP_TRANSPORTER: inhibition of Calcein efflux (Calcein: 0.05 micro;M, Zidovudine: 0.02 uM) in UMCC-1/VP cells

T1 sequence (P33527 whole entry): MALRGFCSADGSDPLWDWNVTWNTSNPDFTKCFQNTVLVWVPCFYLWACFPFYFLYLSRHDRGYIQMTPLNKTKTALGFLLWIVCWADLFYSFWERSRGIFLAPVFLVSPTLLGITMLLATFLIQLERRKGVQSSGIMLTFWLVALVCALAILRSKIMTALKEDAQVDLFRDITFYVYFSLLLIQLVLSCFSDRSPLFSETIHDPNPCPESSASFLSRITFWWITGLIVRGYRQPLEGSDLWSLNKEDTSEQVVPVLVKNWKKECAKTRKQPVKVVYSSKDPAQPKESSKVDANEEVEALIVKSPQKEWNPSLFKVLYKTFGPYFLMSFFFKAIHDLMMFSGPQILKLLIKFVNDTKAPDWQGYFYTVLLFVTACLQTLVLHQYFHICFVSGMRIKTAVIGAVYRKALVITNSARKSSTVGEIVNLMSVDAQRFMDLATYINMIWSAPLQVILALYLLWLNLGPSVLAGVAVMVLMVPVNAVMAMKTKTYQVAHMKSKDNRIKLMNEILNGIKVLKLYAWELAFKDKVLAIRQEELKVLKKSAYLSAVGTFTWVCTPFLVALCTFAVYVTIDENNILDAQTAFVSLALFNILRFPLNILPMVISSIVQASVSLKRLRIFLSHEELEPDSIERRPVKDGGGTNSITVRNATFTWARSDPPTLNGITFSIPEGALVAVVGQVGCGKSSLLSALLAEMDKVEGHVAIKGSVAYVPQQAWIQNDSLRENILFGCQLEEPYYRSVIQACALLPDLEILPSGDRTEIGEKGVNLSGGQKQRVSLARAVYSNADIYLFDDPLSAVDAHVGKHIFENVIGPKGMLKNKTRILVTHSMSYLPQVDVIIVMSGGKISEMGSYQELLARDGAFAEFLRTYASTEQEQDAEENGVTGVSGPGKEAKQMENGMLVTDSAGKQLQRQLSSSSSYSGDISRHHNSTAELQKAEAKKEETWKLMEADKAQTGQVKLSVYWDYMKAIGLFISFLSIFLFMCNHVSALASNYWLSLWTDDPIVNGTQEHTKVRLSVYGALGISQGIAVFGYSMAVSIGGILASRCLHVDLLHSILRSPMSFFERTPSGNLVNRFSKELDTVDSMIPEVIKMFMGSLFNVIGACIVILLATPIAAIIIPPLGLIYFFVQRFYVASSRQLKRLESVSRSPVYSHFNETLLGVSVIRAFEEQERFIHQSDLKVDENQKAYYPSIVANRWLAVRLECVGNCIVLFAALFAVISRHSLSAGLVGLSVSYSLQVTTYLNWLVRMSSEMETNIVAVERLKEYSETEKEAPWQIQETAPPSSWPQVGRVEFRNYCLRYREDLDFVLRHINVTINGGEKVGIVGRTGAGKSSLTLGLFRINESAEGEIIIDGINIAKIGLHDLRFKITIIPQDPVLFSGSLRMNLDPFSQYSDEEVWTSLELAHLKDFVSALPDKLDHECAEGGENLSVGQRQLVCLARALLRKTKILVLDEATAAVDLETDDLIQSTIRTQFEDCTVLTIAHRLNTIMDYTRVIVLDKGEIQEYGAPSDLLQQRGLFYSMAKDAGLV

Activity [1]: is not an inhibitor [-]
SMILES: Nc1ccn([C@@H]2CS[C@H](CO)O2)c(=O)n1 [LAMIVUDINE]

Activity [2]: is not an inhibitor [-]
SMILES: CC(C)CN(C[C@@H](O)[C@H](Cc1ccccc1)NC(=O)O[C@H]1CCOC1)S(=O)(=O)c1ccc(N)cc1

Activity [3]: is not an inhibitor [-]
SMILES: CC(C)(C)NC(=O)[C@@H]1CN(Cc2cccnc2)CCN1C[C@@H](O)C[C@@H](Cc1ccccc1)C(=O)N[C@H]1c2ccccc2C[C@H]1O.O

Activity [4]: is not an inhibitor [-]
SMILES: Cc1cn([C@H]2C[C@H](N=[N+]=[N-])[C@@H](CO)O2)c(=O)[nH]c1=O [ZIDOVUDINE]
